Assay results: patent US20200016136A1 (VIIV HEALTHCARE UK (NO. 5) LIMITED, priority 2017, published 2020)

System: NL-RLuc virus (recombinant NL4-3 HIV with Renilla Luciferase gene)
Assay: Inhibition of HIV replication (NL-RLuc virus in MT-2 cells, luciferase readout)
Type: cell-based, Human immunodeficiency virus (HIV)
Conditions: MT2, 120 h
Outline: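 EC50 derived via median effect equation from at least 2 experiments, using luciferase expression as virus-growth readout. Replication-competent NL-RLuc reporter virus (nef partly replaced by Renilla luciferase) infected MT-2 cells with serial compound dilutions; 5-day incubation in RPMI 1640 plus 10% FBS.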

Row | Structure (SMILES) | EC50
1 | Cc1ncc(-c2ccc3c(c2)CCN(c2nccc(-c4cccnc4)n2)C3)c(N2CCC(C)(C)CC2)c1[C@H](OC(C)(C)C)C(=O)O [Example 146, (S)-2-(tert-Butoxy)-2-(4-(4,4-dimethylpiperidin-1-yl)-2-methyl-5-(2-(4-(pyridin-3-yl)pyrimidin-2-yl)-1,2,3,4-tetrahydroisoquinolin-6-yl)pyridin-3-yl)acetic Acid] | 0.5 nM
2 | CC1(C)CCN(c2c(-c3ccc4c(c3)CCN(c3nccc(-c5cccnc5)n3)C4)c(N)nc(Cl)c2[C@H](OC(C)(C)C)C(=O)O)CC1 [Example 101, (S)-2-(6-Amino-2-chloro-4-(4,4-dimethylpiperidin-1-yl)-5-(2-(4-(pyridin-3-yl)pyrimidin-2-yl)-1,2,3,4-tetrahydroisoquinolin-6-yl)pyridin-3-yl)-2-(tert-butoxy)acetic Acid] | 2 nM
3 | Cc1nc(C)c([C@H](OC(C)(C)C)C(=O)O)c(N2CCC(C)(C)CC2)c1-c1ccc2c(c1)CCN(c1cc(N(C)CCCN(C)C)ncn1)C2 [Example 140, (S)-2-(tert-Butoxy)-2-(5-(2-(6-((3-(dimethylamino)propyl)(methyl)amino)pyrimidin-4-yl)-1,2,3,4-tetrahydroisoquinolin-6-yl)-4-(4,4-dimethylpiperidin-1-yl)-2,6-dimethylpyridin-3-yl)acetic Acid] | 35 nM
4 | Cc1nc(C)c([C@H](OC(C)(C)C)C(=O)O)c(N2CCC(C)(C)CC2)c1-c1ccc2c(c1)CCN(c1ccnc(N3CCC(CCO)CC3)n1)C2 [Example 144, (S)-2-(tert-Butoxy)-2-(4-(4,4-dimethylpiperidin-1-yl)-5-(2-(2-(4-(2-hydroxyethyl)piperidin-1-yl)pyrimidin-4-yl)-1,2,3,4-tetrahydroisoquinolin-6-yl)-2,6-dimethylpyridin-3-yl)acetic Acid] | 3 nM
5 | Cc1nc(C)c([C@H](OC(C)(C)C)C(=O)O)c(N2CCC(C)(C)CC2)c1-c1ccc2c(c1)CCN(c1cccc(N3CCOCC3)n1)C2 [Example 66, (S)-2-(tert-Butoxy)-2-(4-(4,4-dimethylpiperidin-1-yl)-2,6-dimethyl-5-(2-(6-morpholinopyridin-2-yl)-1,2,3,4-tetrahydroisoquinolin-6-yl)pyridin-3-yl)acetic Acid] | 13 nM
6 | Cc1nc(C)c([C@H](OC(C)(C)C)C(=O)O)c(N2CCC(C)(C)CC2)c1-c1ccc2c(c1)CCN(c1cc(N3CCC(N4CCCCC4)CC3)ncn1)C2 [Example 135, (S)-2-(5-(2-(6-([1,4′-Bipiperidin]-1′-yl)pyrimidin-4-yl)-1,2,3,4-tetrahydroisoquinolin-6-yl)-4-(4,4-dimethylpiperidin-1-yl)-2,6-dimethylpyridin-3-yl)-2-(tert-butoxy)acetic Acid] | 19 nM
7 | Cc1nc(C)c([C@H](OC(C)(C)C)C(=O)O)c(N2CCC(C)(C)CC2)c1-c1ccc2c(c1)CCN(c1ccnc(N3CC4CCC(C3)O4)n1)C2 [Example 29, (2S)-2-(tert-Butoxy)-2-[4-(4,4-dimethylpiperidin-1-yl)-2,6-dimethyl-5-[2-(2-{8-oxa-3-azabicyclo[3.2.1]octan-3-yl}pyrimidin-4-yl)-1,2,3,4-tetrahydroisoquinolin-6-yl]pyridin-3-yl]acetic Acid] | 4 nM
8 | Cc1nc(NCCCN2CCCCC2)c(-c2ccc3c(c2)CCN(c2ncnc4c2oc2ccccc24)C3)c(N2CCC(C)(C)CC2)c1[C@H](OC(C)(C)C)C(=O)O [Example 15, (S)-2-(5-(2-(Benzofuro[3,2-d]pyrimidin-4-yl)-1,2,3,4-tetrahydroisoquinolin-6-yl)-4-(4,4-dimethylpiperidin-1-yl)-2-methyl-6-((3-(piperidin-1-yl)propyl)amino)pyridin-3-yl)-2-(tert-butoxy)acetic Acid] | 2 nM
9 | Cc1nc(NCCCN2CCN(C)CC2)c(-c2ccc3c(c2)CCN(c2ncnc4c2oc2ccccc24)C3)c(N2CCC(C)(C)CC2)c1[C@H](OC(C)(C)C)C(=O)O [Example 16, (S)-2-(5-(2-(Benzofuro[3,2-d]pyrimidin-4-yl)-1,2,3,4-tetrahydroisoquinolin-6-yl)-4-(4,4-dimethylpiperidin-1-yl)-2-methyl-6-((3-(4-methylpiperazin-1-yl)propyl)amino)pyridin-3-yl)-2-(tert-butoxy)acetic Acid] | 2 nM
10 | Cc1ccc2c(n1)oc1c(N3CCc4cc(-c5cnc(C)c([C@H](OC(C)(C)C)C(=O)O)c5N5CCC(C)(C)CC5)ccc4C3)ncnc12 [Example 47, (2S)-2-(tert-Butoxy)-2-[4-(4,4-dimethylpiperidin-1-yl)-2-methyl-5-(2-{11-methyl-8-oxa-3,5,10-triazatricyclo[7.4.0.0^2,7]trideca-1(9),2,4,6,10,12-hexaen-6-yl}1,2,3,4tetrahydroisoquinolin-6-yl)pyridin-3-yl]acetic Acid] | 1 nM
11 | Cc1nc(C)c([C@H](OC(C)(C)C)C(=O)O)c(N2CCC(C)(C)CC2)c1-c1ccc2c(c1)CCN(c1nccc(N3C4CCCC3COC4)n1)C2 [Example 35, (2S)-2-(tert-Butoxy)-2-[4-(4,4-dimethylpiperidin-1-yl)-2,6-dimethyl-5-[2-(4-{3-oxa-9-azabicyclo[3.3.1]nonan-9-yl}pyrimidin-2-yl)-1,2,3,4-tetrahydroisoquinolin-6-yl]pyridin-3-yl]acetic Acid] | 3 nM
12 | Cc1nc(C)c([C@H](OC(C)(C)C)C(=O)O)c(N2CCC(C)(C)CC2)c1-c1ccc2c(c1)CCN(c1cc(N3CCCCC3)ncn1)C2 [Example 124, (S)-2-(tert-Butoxy)-2-(4-(4,4-dimethylpiperidin-1-yl)-2,6-dimethyl-5-(2-(6-(piperidin-1-yl)pyrimidin-4-yl)-1,2,3,4-tetrahydroisoquinolin-6-yl)pyridin-3-yl)acetic Acid] | 17 nM
13 | Cc1nc(C)c([C@H](OC(C)(C)C)C(=O)O)c(N2CCC(C)(C)CC2)c1-c1ccc2c(c1)CCN(c1nccc(N3CCC4(CCC4)CC3)n1)C2 [Example 25, (2S)-2-{5-[2-(4-{7-Azaspiro[3.5]nonan-7-yl}pyrimidin-2-yl)-1,2,3,4-tetrahydroisoquinolin-6-yl]-4-(4,4-dimethylpiperidin-1-yl)-2,6-dimethylpyridin-3-yl}-2-(tert-butoxy)acetic Acid] | 5 nM
14 | Cc1nc(C)c([C@H](OC(C)(C)C)C(=O)O)c(N2CCC(C)(C)CC2)c1-c1ccc2c(c1)CCN(c1ccnc(N3C4CCCC3COC4)n1)C2 [Example 36, (2S)-2-(tert-Butoxy)-2-[4-(4,4-dimethylpiperidin-1-yl)-2,6-dimethyl-5-[2-(2-{3-oxa-9-azabicyclo[3.3.1]nonan-9-yl}pyrimidin-4-yl)-1,2,3,4-tetrahydroisoquinolin-6-yl]pyridin-3-yl]acetic Acid] | 3 nM
15 | CCOc1cc(N2CCc3cc(-c4c(C)nc(C)c([C@H](OC(C)(C)C)C(=O)O)c4N4CCC(C)(C)CC4)ccc3C2)ncn1 [Example 126, (S)-2-(tert-Butoxy)-2-(4-(4,4-dimethylpiperidin-1-yl)-5-(2-(6-ethoxypyrimidin-4-yl)-1,2,3,4-tetrahydroisoquinolin-6-yl)-2,6-dimethylpyridin-3-yl)acetic Acid] | 5 nM
16 | COc1ncccc1-c1cc(C)nc(N2CCc3cc(-c4c(C)nc(C)c([C@H](OC(C)(C)C)C(=O)O)c4N4CCC(C)(C)CC4)ccc3C2)n1 [Example 106, (S)-2-(tert-Butoxy)-2-(4-(4,4-dimethylpiperidin-1-yl)-5-(2-(4-(2-methoxypyridin-3-yl)-6-methylpyrimidin-2-yl)-1,2,3,4-tetrahydroisoquinolin-6-yl)-2,6-dimethylpyridin-3-yl)acetic Acid] | 8 nM
